# Literature values in patent publication US20210186880A1, “ORAL FORMULATIONS WITH INCREASED UPTAKE” (Brown University, priority 2018, published 2021).
# Like-named read-outs stand apart in the source and are kept apart here.
# Experiments:
# GLP-1 receptor [1] = molecular target: T1, GLP-1 receptor (Homo sapiens, UniProt P43220)
# GLP-1 receptor [2] = molecular target: T1, GLP-1 receptor; remark: listed apart in the source
# [3] = oral
# [4] = in vivo
# T1 sequence (P43220 24-463, species assumed): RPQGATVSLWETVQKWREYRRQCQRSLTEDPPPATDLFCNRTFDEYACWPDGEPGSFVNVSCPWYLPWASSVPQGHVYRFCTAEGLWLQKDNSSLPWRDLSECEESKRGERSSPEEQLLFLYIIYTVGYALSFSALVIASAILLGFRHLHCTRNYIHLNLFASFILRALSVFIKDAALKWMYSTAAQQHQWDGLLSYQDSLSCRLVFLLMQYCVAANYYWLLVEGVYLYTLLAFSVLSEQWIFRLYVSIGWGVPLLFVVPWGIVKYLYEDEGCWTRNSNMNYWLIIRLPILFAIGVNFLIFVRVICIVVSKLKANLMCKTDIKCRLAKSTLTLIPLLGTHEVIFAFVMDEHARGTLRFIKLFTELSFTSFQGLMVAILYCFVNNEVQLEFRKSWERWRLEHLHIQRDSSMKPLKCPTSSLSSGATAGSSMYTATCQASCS
substance,measurement,setting,value
GLP-1(9-36)-NH2,"binding affinity compared to the intact peptide, lower",GLP-1 receptor [1],100 fold
same,"agonistic activity, decrease",GLP-1 receptor [2],> 10000 fold
Glucagon-like peptide-1 [GLP-1],ghrelin secretion,[3],suppressed ghrelin secretion
same,insulin release,[3],potent effect on insulin release
same,plasma drug concentrations,[3]; dose-escalating,rapid and dose-dependent increase in plasma drug concentrations
same,bioavailabilities,"[3]; doses of 0.5, 1.0, 2.0, and 4.0 mg",lower than 10%
same,mean absolute bioavailability,[3]; relative to intravenous administration,4%
same,fasting and postprandial glucose values,"continuous 48-hour subcutaneous infusion, ~4-8 ng·kg^−1·min^−1",lowered fasting and postprandial glucose values
rGLP-1: rGLP-1 infused at 1.25-8.5 pmol/kg/min in a cited study,fasting serum glucose decrease,1.25 pmol/kg/min,22.7 mg/dL
same,fasting serum glucose decrease,2.5 pmol/kg/min,37.0 mg/dL
same,fasting serum glucose decrease,5.0 pmol/kg/min,53.9 mg/dL
same,fasting serum glucose decrease,8.5 pmol/kg/min,76.2 mg/dL
semaglutide: GLP-1 analog acylated with a spacer and C-18 fatty di-acid chain,plasma half-life,[4],long
